Results: patent US6165732A, “Method for identifying apoptosis modulating compounds” (Washington University, priority 1998, dated 2000)
Where two headings read alike, the source gives them in different places.

Experiments:
[1] = Low pH channel formation after addition of protein to an established planar lipid bilayer; format: biochemical; settings: for initial current (direction): 450/150 mM KCl cis to trans, pH 4.0, spontaneous (OS); for conductance of initial channel: pH 4.0, initial current; for effect of shifting pH on conductance and selectivity: pH 4.0 to 7.0; for PK/PCl after pH shift to 7.0: pH 7.0 after insertion at pH 4.0; for ion selectivity of channel: low pH insertion
Excerpt: (§1) The Bax and Bcl-2 polypeptides used in the ion channel studies reported herein were recombinant murine Bcl-2 and Bax polypeptides lacking the C-terminal signal-anchor membrane targeting sequence (Bcl-2ΔC21, amino acids 1-218 of SEQ ID NO:9 and BaxΔC19, amino acids 1-173 of SEQ ID NO:6). These deletion derivatives, also referred to herein as BaxΔTM and Bcl-2ΔTM, were used to avoid any interference of the C-terminal signal-anchor membrane targeting sequence with the capacity of internal α helices to mediate insertion into artificial lipid bilayers.
(§2) Planar lipid bilayers were prepared from soybean lipids by chloroform extraction of Azolectin Type II (10-20% choline, 80-90% negatively charged lipids) (Sigma). The chloroform was removed with a stream of nitrogen and the lipids stored under N2 until dissolved in decane at 30 mg/ml. This preparation was then stored under nitrogen. The 0.25 mm orifice of a polystyrene cuvette (Warner Instruments) was pretreated with 2 μl of the decane lipid solution and the solvent allowed to evaporate. The cuvette was then placed into a bilayer chamber and connected to Bilayer Clamp BC525-a (Warner Instruments) by Ag/AgCl electrodes via agar salt bridges. Data were collected using an Axoscope (Axon Instruments Software), archived on video tape using a Neurocorder DR-484 (Neuro Data Instruments), and analyzed using Origin (Microcal) and pClamp6 (Axon Instruments Software). Slope conductance was calculated by the method of least squares and the variance is given. Ion selectivities were calculated using the reversal potential and the Goldman equation. The reversal potential means the zero-current potential of a bilayer membrane. The reversal potential is zero with no ion gradient and the magnitude of the potential in the presence of an ion gradient reflects the cation versus anion selectivity of the bilayer.
Bilayers were formed by spreading with a polished glass rod and allowed to thin to a capacitance of 0.4 μF/cm^2 at which point the noise was typically 0.2 pA and the leak conductance was 20 pS. The salt concentrations were initially 450 mM KCl in the cis chamber (1.0 ml) and 150 mM KCl in the trans chamber (0.5 ml) to permit identification of spontaneous initial currents. Outward (positive) currents were defined as K^+ moving cis-to trans. All solutions were buffered to pH 4.0 with 10 mM K-acetate. BaxΔTM or Bcl-2ΔTM (approx. 1 μg) was added to the cis chamber with mixing. After initial currents were identified the soluble protein was usually removed by exchanging the cis chamber contents with aliquots of buffer.

[2] = cited from earlier work
[3] = Channels in planar lipid bilayers at pH 7.0 after fusion with unilamellar proteoliposomes containing the protein; format: biochemical; settings: for conductance pattern / ion selectivity of channel / rectification: neutral pH; for ion selectivity of channel: proteoliposome fusion; for rectification: symmetrical KCl
Excerpt: as §1, §2
Proteoliposomes for fusion with a planar lipid bilayer were prepared as follows. Purified protein (0.25 μg) was added to […] lipid (Azolectin) in 20 μl of KCl buffer (150 mM KCl, 10 mM HEPES, pH 7.0). This mixture was placed into a dialysis bag with a molecular weight cutoff of 12 KDa. After 16 hours dialysis in 3000 volumes of 150 mM KCl (10 mM HEPES, pH 7.0) the proteoliposome suspension was removed and placed on ice for immediate use. The bilayer was set up with a 450:150 cis to trans KCl gradient to identify the ion selectivity of the initial currents. Fusion was initiated by adding 5-20 μl of lipid vesicles (only 5-20 ng of protein) to the cis bilayer chamber with mixing. Non-fused proteoliposomes were removed from the compartments and solutions exchanged as described above.
Control bilayers containing Bcl-2 or Bax channels were prepared by fusion of unilamellar proteoliposomes with incorporated Bcl-2ΔTM or BaxΔTM with an established planar bilayer as described in Example 4. Test bilayers containing Bcl-2 channels were prepared in the same manner to which an 11 mer Bax peptide (SEQ ID NO:1) with known death agonist activity was added at 20, 50 or 100 μM. A voltage of 80 mV was applied to each control and test channel and its conductance measured for a period of 12 to 16 seconds and the frequency that each channel was measured at a particular conductance level (pA) was calculated. The data, representing about 500,000 measurements, are shown as histograms in FIGS. 8A-8E. […]

[4] = cited from earlier work; remark: listed apart in the source
[5] = Cl- release (efflux) from KCl loaded synthetic lipid vesicles as a function of pH; format: biochemical
Protocol: This example illustrates that Bax and Bcl-2 induce the release of ions from synthetic lipid vesicles.
Unilamellar vesicles composed of 40% 1,2 dioleoyl phosphatidyl glycerol and 60% 1,2 dioleoyl phosphatidyl choline (Avanti Polar Lipids) were prepared in 100 mM KCl, 2 mM CaNO3 and 10 mM dimethylglutarate, pH 5.0 as previously described (Peterson et al., J. Membr. Biol. 99:197-204, 1987). The resulting liposomes were diluted 200-fold to a concentration of 0.05 mg/ml in 100 mM KNO3, 2 mM CaNO3 and 10 mM dimethylglutarate which was titrated to pH 3.5, 4.0, 4.5, 5.0, 5.5 or 6.0 with NaOH or with acetic acid. BaxΔC19 and Bcl-2ΔC21 were added at a concentration of 500 ng/ml and Cl^- efflux was measured with a Cl^- combination ion selective electrode (Accumet). Triton X-100 (0.1%) was added to release the total encapsulated Cl^- at the times indicated by the arrows in FIG. 1. The total amount of Cl^- released was quantitated by a calibration curve produced by successive additions of 25 μM KCl.

[6] = physiological pH (Antonsson et al.)
[7] = 450/150 mM KCl gradient, pH 7.0
[8] = planar lipid bilayers, pH 7.0 (Antonsson et al.)
[9] = pH 4.0, same quantities of each protein
[10] = stated as behaviour like Bax / Bcl-2 (criterion)

Bax: recombinant murine Bax polypeptide lacking the C-terminal signal-anchor membrane targeting sequence (amino acids 1-173 of SEQ ID NO:6)
initial current (direction) [1]: initial, inward current | conductance of initial channel ([1]; 450/150 mM KCl): 22 (s.d. 5, n=5) pS | conductance of initial channel ([1]; 450/150 mM KCl, listed as BaxΔTM): 22 pS | time to appearance of initial current ([1]; 450/150 mM KCl, pH 4.0, listed as BAXΔTM): ≤ 10 min | time to appearance of initial current ([1]; 450/150 mM KCl, pH 4.0, listed as BaxΔTM): Four | duration of channel transition ([1]; +40 mV, pH 4.0): ~ 5 mins | current level, C and OS ([1]; +40 mV, transition, pH 4.0): 0 pA | current level, O1 ([1]; +40 mV, transition, pH 4.0): 2.36 pA | current level, O1+2 ([1]; +40 mV, transition, pH 4.0): 8.81 pA | current level, O2 ([1]; +40 mV, transition, pH 4.0): 6.4 pA | current level, C ([1]; -40 mV, transition, pH 4.0): 0 pA | current level, O1 ([1]; -40 mV, transition, pH 4.0): -10.9 pA | current level, O1+2 ([1]; -40 mV, transition, pH 4.0): -30.5 pA | current level, OS ([1]; -40 mV, transition, pH 4.0): -2.14 pA | voltage dependence ([1]; hyperpolarization to -40 mV, pH 4.0): increased the channel activity | slope conductance of final stable channel ([1]; pH 4.0): 0.731±0.01 nS | PK/PCl (Cl- selectivity, average over current levels) ([1]; pH 4.0, from reversal potential): 0.10 | effect of shifting pH on conductance and selectivity [1]: altered the conductance and selectivity of Bax | current-voltage relation ([1]; pH 7.0): linear with voltage | conductance after pH shift to 7.0 ([1]; pH 7.0, 450/150 mM KCl gradient): 0.329±0.002 nS | conductance after pH shift to 7.0 ([1]; pH 7.0, both chambers 150 mM KCl): 0.302±0.008 nS | PK/PCl after pH shift to 7.0 [1]: 0.5 | time from initial appearance to channel progression ([1]; planar bilayers): 2 to 4 min | ion selectivity of channel ([1]; planar bilayers): consistent anion selectivity | ion selectivity of channel ([1]; planar bilayers, listed as BAX): Cl^- selective | pore-forming activity in liposomes [2, 6]: intrinsic pore-forming activity | less frequent conductance peak ([3]; 80 mV, no peptide): about 65 pA | PK/PCl from reversal potential [3, 7]: 0.32 | initial current (direction) [3, 7]: inward (PK <PCl) current | duration of periodic channel closing ([3]; -70 mV, symmetrical 150 mM KCl): 20 to 30 ms | conductance pattern [3]: simpler single channel conductance pattern | ion selectivity of channel [3]: Cl^- -selective | channel conductance at negative voltages ([3]; symmetrical 150 mM KCl, pH 7.0): 1.5 (sd 0.3, n=3) nS | rectification [3]: Mild outward rectification | ion selectivity [4, 8]: cation selective | permeability ratio of Na+ to Cl- [4, 8]: about 2.1 | ion selectivity ([4]; planar lipid bilayers, pH 7.0 (Antonsson et al.), listed as BaxΔTM): slightly cation selective | highest pH with retained activity (ion release from liposomes) [5]: ≤ 5.5 pH | pH of maximum release of Cl- ([5]; 500 ng/ml, FIG. 1A): 4.0-4.5 pH | Cl- release from KCl loaded lipid vesicles ([5]; pH 3.5): 41% | release of Cl-, decrease from maximum ([5]; pH 3.5, 500 ng/ml, FIG. 1A): 50% | Cl- release from KCl loaded lipid vesicles [5, 9]: 75% | Cl- release from KCl loaded lipid vesicles ([5]; pH 5.0): 41% | release of Cl-, decrease from maximum ([5]; pH 5.0, 500 ng/ml, FIG. 1A): 50% | release of Cl-, decrease from maximum ([5]; pH 5.5, 500 ng/ml, FIG. 1A): less than 10% | release of Cl- on pH shift ([5]; pH 6.0 shifted to pH 4.0, FIG. 1C): a rapid release of Cl^- | ratio of channel indicator release at pH 3.5 and pH 4.0 (R3.5/4.0) [5, 10]: less than 1

B1: Bcl-2: recombinant murine Bcl-2 polypeptide lacking the C-terminal signal-anchor membrane targeting sequence (amino acids 1-218 of SEQ ID NO:9) (protein)
chain: MAQAGRTGYDNREIVMKYIHYKLSQRGYEWDAGDADAAPLGAAPTPGIFSFQPESNPMPAVHREMAARTSPLRPLVATAGPALSPVPPCVHLTLRRAGDDFSRRYRRDFAEMSSQLHLTPFTARGRFATVVEELFRDGVNWGRIVAFFEFGGVMCVESVNREMSPLVDNIALWMTEYLNRHLHTWIQDNGGWDAFVELYGPSMRPLFDFSWLSLKTLL
initial current (direction) [1]: initial outward | PK/PCl of initial current ([1]; 450/150 mM KCl, pH 4.0): 3.9 | magnitude of initial current ([1]; 450/150 mM KCl, pH 4.0): 0.85±0.06 pA | time to appearance of initial current ([1]; 450/150 mM KCl, pH 4.0): ≤ 5 min | conductance of initial channel ([1]; 450/150 mM KCl): 80.3±0.06 pS | conductance of initial channel ([1]; 450/150 mM KCl, listed as Bcl-2ΔTM): 80 pS | duration of initial state ([1]; pH 4.0): 2 to 5 min | slope conductance of final stable channel ([1]; pH 4.0): 1.90±0.06 nS | duration of channel open periods ([1]; pH 4.0, with brief closures): 5 to 10 s | effect of shifting pH on conductance and selectivity [1]: not Bcl-2 | PK/PCl after pH shift to 7.0 [1]: 6.5 | conductance of large pore after pH shift to 7.0 ([1]; pH shifted to 7.0, FIG. 4E): 2.14±0.04 nS | ion selectivity of channel ([1]; planar bilayers): mild cation selectivity | pore forming activity in lipid vesicles ([2]; pH above 5.5): little or no detectable pore forming activity | insertion into synthetic lipid vesicles ([2]; pH values below 5.5): insert into synthetic lipid vesicles at pH values below 5.5 | antagonism of BaxΔTM pore-forming activity in liposomes [2, 6]: antagonized | single channel current ([3]; 450/150 mM KCl gradient, FIG. 5A): 5 pA | PK/PCl from reversal potential [3, 7]: 2.4 | initial current (direction) [3, 7]: outward (K^+) current | conductance pattern [3]: complex multichannel conductance pattern | ion selectivity of channel [3]: K^+ -selective | voltage dependence of open channel current ([3]; symmetrical 150 mM KCl): linear | hyperpolarization beyond which a channel closure occurs ([3]; symmetrical 150 mM KCl, FIG. 5C): more than -70 mV | slope conductance ([3]; symmetrical 150 mM KCl, pH 7.0): 1.08 (s.d. 0.10, n=5) nS | rectification [3]: no rectification | primary channel conductance ([4]; lipid bilayers, physiological pH (Schendel et al.)): 18±2 pS | ion selectivity ([4]; pH 5.4 (Schendel et al.)): cation selective | multiple conductance states ([4]; planar lipid bilayers, physiological pH): multiple channel conductance states | inactivation of Cl- release ([5]; by pH 5.0, 500 ng/ml, FIG. 1B): complete inactivation | Cl- release from KCl loaded lipid vesicles ([5]; pH 3.5): 81% | relative activity of Bcl-2 versus Bax (Cl- release) ([5]; pH 3.5): twice as active as Bax | Cl- release from KCl loaded lipid vesicles [5, 9]: 75% | Cl- release from KCl loaded lipid vesicles ([5]; pH 5.0): 7% | release of Cl- on pH shift ([5]; pH 5.0 shifted to 4.0, FIG. 1D): activated the release of Cl^- | ratio of channel indicator release at pH 3.5 and pH 4.0 (R3.5/4.0) [5, 10]: about 1.0 | ratio of indicator release at pH 4.0 and 5.0 (R4.0/5.0) [5, 10]: greater than 7.0
